In article PMC5218480 (PLoS ONE, 2017):

Tested on: MV-4-11 cells
Assay: Gene expression microarray analysis (Affymetrix PrimeView) and GSEA
Type: cell-based, human
Parameters: RFU PODN (11730768_x_at) / Fold change /veh PODN (11730768_x_at) / RFU LINC00158 (11744669_a_at) / Fold change /veh LINC00158 (11744669_a_at) / RFU DUSP10 (11751237_a_at) / Fold change /veh DUSP10 (11751237_a_at) / RFU ID3 (11757404_x_at) / Fold change /veh ID3 (11757404_x_at) / RFU PLEKHG5 (11737974_s_at) / Fold change /veh PLEKHG5 (11737974_s_at) / RFU LRRC4B (11730491_at) / Fold change /veh LRRC4B (11730491_at) / RFU GIMAP4 (11747438_a_at) / Fold change /veh GIMAP4 (11747438_a_at) / RFU KRT8 (11758183_x_at) / Fold change /veh KRT8 (11758183_x_at) / RFU CNN1 (11734310_a_at) / Fold change /veh CNN1 (11734310_a_at) / RFU VPS37D (11726825_at) / Fold change /veh VPS37D (11726825_at) / RFU C10orf10 (11716522_x_at) / Fold change /veh C10orf10 (11716522_x_at) / RFU KIR2DL2 /// KIR2DL4 /// KIR2DL5A /// KIR2DL5B /// KIR2DS1 /// KIR2DS2 /// KIR2DS3 /// KIR2DS4 /// KIR3DL3 /// KIR3DL3 /// KIR3DS1 (11738374_at) / Fold change /veh KIR2DL2 /// KIR2DL4 /// KIR2DL5A /// KIR2DL5B /// KIR2DS1 /// KIR2DS2 /// KIR2DS3 /// KIR2DS4 /// KIR3DL3 /// KIR3DL3 /// KIR3DS1 (11738374_at) / RFU C1QL1 (11718748_at) / Fold change /veh C1QL1 (11718748_at) / RFU TMPRSS4 (11747572_a_at) / Fold change /veh TMPRSS4 (11747572_a_at) / RFU HAMP (11756126_x_at) / Fold change /veh HAMP (11756126_x_at) / RFU RNFT2 (11725882_a_at) / Fold change /veh RNFT2 (11725882_a_at) / RFU NR4A2 (11747474_a_at) / Fold change /veh NR4A2 (11747474_a_at) / RFU ABCC12 (11746883_a_at) / Fold change /veh ABCC12 (11746883_a_at) / RFU TMEM136 (11760407_x_at) / Fold change /veh TMEM136 (11760407_x_at) / RFU CLDN22 /// WWC2 (11732394_at) / Fold change /veh CLDN22 /// WWC2 (11732394_at) / RFU HLA-DPB1 (11760878_x_at) / Fold change /veh HLA-DPB1 (11760878_x_at) / RFU SPINT1 (11716480_a_at) / Fold change /veh SPINT1 (11716480_a_at) / RFU GAP43 (11754022_s_at) / Fold change /veh GAP43 (11754022_s_at) / RFU A4GNT (11735810_at) / Fold change /veh A4GNT (11735810_at) / RFU PRB3 (11715151_x_at) / Fold change /veh PRB3 (11715151_x_at) / RFU TUBB4B (11761932_at) / Fold change /veh TUBB4B (11761932_at) / RFU CAPN14 (11732068_a_at) / Fold change /veh CAPN14 (11732068_a_at) / RFU TMCC2 (11721928_a_at) / Fold change /veh TMCC2 (11721928_a_at) / RFU IRGQ (11745062_a_at) / Fold change /veh IRGQ (11745062_a_at) / RFU FAM174B (11720279_a_at) / Fold change /veh FAM174B (11720279_a_at) / RFU TMPRSS4 (11748680_a_at) / Fold change /veh TMPRSS4 (11748680_a_at) / RFU FAM212B (11763350_a_at) / Fold change /veh FAM212B (11763350_a_at) / RFU PLEKHG5 (11743358_a_at) / Fold change /veh PLEKHG5 (11743358_a_at) / RFU ZSCAN30 (11745921_a_at) / Fold change /veh ZSCAN30 (11745921_a_at) / RFU CMKLR1 (11741424_a_at) / Fold change /veh CMKLR1 (11741424_a_at) / RFU LOC101060620 /// MAPK8IP1 (11723275_at) / Fold change /veh LOC101060620 /// MAPK8IP1 (11723275_at) / RFU SPTSSB (11747773_x_at) / Fold change /veh SPTSSB (11747773_x_at) / RFU PRSS12 (11739890_at) / Fold change /veh PRSS12 (11739890_at) / RFU BIN1 (11741810_x_at) / Fold change /veh BIN1 (11741810_x_at) / RFU WNT11 (11732464_a_at) / Fold change /veh WNT11 (11732464_a_at) / RFU C10orf10 (11716521_a_at) / Fold change /veh C10orf10 (11716521_a_at) / RFU C5orf56 (11738089_at) / Fold change /veh C5orf56 (11738089_at) / RFU CYB561 (11721691_x_at) / Fold change /veh CYB561 (11721691_x_at) / RFU ANKRD19P (11752326_a_at) / Fold change /veh ANKRD19P (11752326_a_at) / RFU OR2T12 /// OR2T33 /// OR2T8 (11738714_s_at) / Fold change /veh OR2T12 /// OR2T33 /// OR2T8 (11738714_s_at) / RFU VCAN (11748164_a_at) / Fold change /veh VCAN (11748164_a_at) / RFU JSRP1 (11732532_at) / Fold change /veh JSRP1 (11732532_at) / RFU KRTAP10-11 (11738290_x_at) / Fold change /veh KRTAP10-11 (11738290_x_at) / RFU MYO3A (11730013_a_at) / Fold change /veh MYO3A (11730013_a_at) / RFU EBF3 (11725865_a_at) / Fold change /veh EBF3 (11725865_a_at) / RFU CAMK2N1 (11719241_x_at) / Fold change /veh CAMK2N1 (11719241_x_at) / RFU C5orf56 (11738088_a_at) / Fold change /veh C5orf56 (11738088_a_at) / RFU OLFML3 (11715873_a_at) / Fold change /veh OLFML3 (11715873_a_at) / RFU LOC100653217 /// NTM (11731650_a_at) / Fold change /veh LOC100653217 /// NTM (11731650_a_at) / RFU MAPK11 (11762145_a_at) / Fold change /veh MAPK11 (11762145_a_at) / RFU FIZ1 (11724087_x_at) / Fold change /veh FIZ1 (11724087_x_at) / RFU OASL (11726364_x_at) / Fold change /veh OASL (11726364_x_at) / RFU SOX15 (11748057_x_at) / Fold change /veh SOX15 (11748057_x_at) / RFU CD79A (11719716_a_at) / Fold change /veh CD79A (11719716_a_at) / RFU HIST1H1D (11736915_at) / Fold change /veh HIST1H1D (11736915_at) / RFU CASKIN2 (11723855_a_at) / Fold change /veh CASKIN2 (11723855_a_at) / RFU LOC730098 (11760151_x_at) / Fold change /veh LOC730098 (11760151_x_at) / RFU OR4N2 (11742367_at) / Fold change /veh OR4N2 (11742367_at) / RFU PRRT2 (11749266_a_at) / Fold change /veh PRRT2 (11749266_a_at) / RFU SNX32 (11753110_a_at) / Fold change /veh SNX32 (11753110_a_at) / RFU CDHR5 (11726645_a_at) / Fold change /veh CDHR5 (11726645_a_at) / RFU RCAN1 (11760418_a_at) / Fold change /veh RCAN1 (11760418_a_at) / RFU FAM167A (11723789_a_at) / Fold change /veh FAM167A (11723789_a_at) / RFU FAM26E (11764081_at) / Fold change /veh FAM26E (11764081_at) / RFU ISYNA1 (11749810_s_at) / Fold change /veh ISYNA1 (11749810_s_at) / RFU ACY1 (11761880_at) / Fold change /veh ACY1 (11761880_at) / RFU 11764098_at / Fold change /veh 11764098_at / RFU SAMD14 (11745864_x_at) / Fold change /veh SAMD14 (11745864_x_at) / RFU NPB (11741838_a_at) / Fold change /veh NPB (11741838_a_at) / RFU TMPRSS6 (11731388_a_at) / Fold change /veh TMPRSS6 (11731388_a_at) / RFU KRTAP10-2 (11738614_at) / Fold change /veh KRTAP10-2 (11738614_at) / RFU ARHGAP8 /// PRR5-ARHGAP8 (11727945_x_at) / Fold change /veh ARHGAP8 /// PRR5-ARHGAP8 (11727945_x_at) / RFU KRTAP5-7 /// NADSYN1 (11734609_at) / Fold change /veh KRTAP5-7 /// NADSYN1 (11734609_at) / RFU RASL12 (11751679_a_at) / Fold change /veh RASL12 (11751679_a_at) / RFU CDKN2B (11736163_a_at) / Fold change /veh CDKN2B (11736163_a_at) / RFU PRF1 (11729649_at) / Fold change /veh PRF1 (11729649_at) / RFU, ZNF638 /// ZNF638-IT1 / Fold change vs veh, ZNF638 /// ZNF638-IT1 / RFU, PANK3 / Fold change vs veh, PANK3 / RFU, SH3YL1 / Fold change vs veh, SH3YL1 / RFU, ZEB2 / Fold change vs veh, ZEB2 / RFU, NRIP1 / Fold change vs veh, NRIP1 / RFU, PTTG1IP / Fold change vs veh, PTTG1IP / RFU, CAPN2 / Fold change vs veh, CAPN2 / RFU, MED14 / Fold change vs veh, MED14 / RFU, SNORA58 / Fold change vs veh, SNORA58 / RFU, C1orf63 / Fold change vs veh, C1orf63 / RFU, LRRFIP1 / Fold change vs veh, LRRFIP1 / RFU, NDUFAF7 / Fold change vs veh, NDUFAF7 / RFU, SLC12A2 / Fold change vs veh, SLC12A2 / RFU, IBTK / Fold change vs veh, IBTK / RFU, ESF1 / Fold change vs veh, ESF1 / Fold change vs veh, TMEM50B / RFU, TAOK1 / Fold change vs veh, TAOK1 / RFU, ACBD3 / Fold change vs veh, ACBD3 / RFU, TMA16 / Fold change vs veh, TMA16 / RFU, RWDD3 / Fold change vs veh, RWDD3 / RFU, BCAT1 / Fold change vs veh, BCAT1 / RFU, EDEM3 / Fold change vs veh, EDEM3 / RFU, TMEM33 / Fold change vs veh, TMEM33 / RFU, WDR75 / Fold change vs veh, WDR75 / RFU, AHCTF1 / Fold change vs veh, AHCTF1 / RFU, TFRC / Fold change vs veh, TFRC / RFU, ZDHHC17 / Fold change vs veh, ZDHHC17 / RFU, NOM1 / Fold change vs veh, NOM1 / RFU, ARL8B / Fold change vs veh, ARL8B / RFU, ZBTB11 / Fold change vs veh, ZBTB11 / RFU, TAMM41 / Fold change vs veh, TAMM41 / RFU, KIAA1704 /// LOC100996395 / Fold change vs veh, KIAA1704 /// LOC100996395 / RFU, ING1 / Fold change vs veh, ING1 / RFU, TRMT61B / Fold change vs veh, TRMT61B / RFU, FUBP3 / Fold change vs veh, FUBP3 / RFU, TP53 / Fold change vs veh, TP53 / RFU, TNKS2 / Fold change vs veh, TNKS2 / RFU, ZFP14 / Fold change vs veh, ZFP14 / RFU, ACTR2 / Fold change vs veh, ACTR2 / RFU, PPP3R1 / Fold change vs veh, PPP3R1 / RFU, PIK3R1 / Fold change vs veh, PIK3R1 / RFU, HNRNPA1 / Fold change vs veh, HNRNPA1 / RFU, RNF170 / Fold change vs veh, RNF170 / RFU, ZNF28 / Fold change vs veh, ZNF28 / RFU, RNGTT / Fold change vs veh, RNGTT / RFU, OGT / Fold change vs veh, OGT / RFU, BRD1 / Fold change vs veh, BRD1 / RFU, MARS / Fold change vs veh, MARS / RFU, ZNF655 / Fold change vs veh, ZNF655 / RFU, FAHD1 / Fold change vs veh, FAHD1 / RFU, BDP1 / Fold change vs veh, BDP1 / RFU, LRRCC1 / Fold change vs veh, LRRCC1 / RFU, ARID1A / Fold change vs veh, ARID1A / RFU, ZNF146 / Fold change vs veh, ZNF146 / RFU, ZNF330 / Fold change vs veh, ZNF330 / RFU, GPN3 / Fold change vs veh, GPN3 / RFU, C9orf123 / Fold change vs veh, C9orf123 / RFU, N4BP2L2 / Fold change vs veh, N4BP2L2 / RFU, ARFIP1 / Fold change vs veh, ARFIP1 / RFU, FAM179B / Fold change vs veh, FAM179B / RFU, BCL10 / Fold change vs veh, BCL10 / RFU, UHRF1BP1L / Fold change vs veh, UHRF1BP1L / RFU, BET1 / Fold change vs veh, BET1 / RFU, CNOT2 / Fold change vs veh, CNOT2 / RFU, ZNF268 / Fold change vs veh, ZNF268 / Fold change vs veh, ZNF507 / RFU, DGCR2 / Fold change vs veh, DGCR2 / RFU, WDSUB1 / Fold change vs veh, WDSUB1 / Fold change vs veh, HSP90B1 /// MIR3652 / RFU, ADSS / Fold change vs veh, ADSS / RFU, GK / Fold change vs veh, GK / RFU, ZNF148 / Fold change vs veh, ZNF148 / RFU, TAF9 / Fold change vs veh, TAF9 / RFU, SLC1A5 / Fold change vs veh, SLC1A5 / RFU, SLMO2 / Fold change vs veh, SLMO2 / RFU, ABCC4 / Fold change vs veh, ABCC4 / RFU, LOC101060439 /// RAP1B / Fold change vs veh, LOC101060439 /// RAP1B / RFU, RFX7 / Fold change vs veh, RFX7 / RFU, GTPBP10 / Fold change vs veh, GTPBP10 / RFU, CNEP1R1 / Fold change vs veh, CNEP1R1 / RFU, BIVM-ERCC5 /// ERCC5 / Fold change vs veh, BIVM-ERCC5 /// ERCC5 / RFU, ILF3 / Fold change vs veh, ILF3 / RFU 11762660_at / Fold change /veh 11762660_at / RFU VCAN (11757783_s_at) / Fold change /veh VCAN (11757783_s_at) / RFU DDX43 (11728927_at) / Fold change /veh DDX43 (11728927_at) / RFU KRT8 (11758188_x_at) / Fold change /veh KRT8 (11758188_x_at) / RFU NKD1 (11759106_at) / Fold change /veh NKD1 (11759106_at) / RFU SRD5A1 (11742802_a_at) / Fold change /veh SRD5A1 (11742802_a_at) / RFU TPSAB1 /// TPSB2 (11721975_s_at) / Fold change /veh TPSAB1 /// TPSB2 (11721975_s_at) / RFU GSTM3 (11746129_a_at) / Fold change /veh GSTM3 (11746129_a_at) / RFU IL23R (11737362_x_at) / Fold change /veh IL23R (11737362_x_at) / RFU TMEM51 (11727254_a_at) / Fold change /veh TMEM51 (11727254_a_at) / RFU PIWIL2 (11732686_x_at) / Fold change /veh PIWIL2 (11732686_x_at) / RFU ORM1 (11744905_x_at) / Fold change /veh ORM1 (11744905_x_at) / RFU CCDC152 (11743942_at) / Fold change /veh CCDC152 (11743942_at) / RFU ECM1 (11717891_a_at) / Fold change /veh ECM1 (11717891_a_at) / RFU IL23R (11748794_a_at) / Fold change /veh IL23R (11748794_a_at) / RFU TNFAIP8L3 (11732012_x_at) / Fold change /veh TNFAIP8L3 (11732012_x_at) / RFU MBOAT4 (11741988_at) / Fold change /veh MBOAT4 (11741988_at) / RFU 11764193_at / Fold change /veh 11764193_at / RFU TMEM53 (11763286_at) / Fold change /veh TMEM53 (11763286_at) / RFU MAGEB2 (11727129_at) / Fold change /veh MAGEB2 (11727129_at) / RFU TMEM200A (11744735_a_at) / Fold change /veh TMEM200A (11744735_a_at) / RFU CCDC152 (11751479_a_at) / Fold change /veh CCDC152 (11751479_a_at) / RFU FAM211A (11726209_a_at) / Fold change /veh FAM211A (11726209_a_at) / RFU RGS16 (11746705_a_at) / Fold change /veh RGS16 (11746705_a_at) / RFU VCAN (11755009_s_at) / Fold change /veh VCAN (11755009_s_at) / RFU RHOB (11743442_s_at) / Fold change /veh RHOB (11743442_s_at) / RFU RGS16 (11720943_a_at) / Fold change /veh RGS16 (11720943_a_at) / RFU RGS16 (11720944_at) / Fold change /veh RGS16 (11720944_at) / RFU, VPS4B / Fold change vs veh, VPS4B / RFU, CREB1 / Fold change vs veh, CREB1 / RFU, DNAJC13 / Fold change vs veh, DNAJC13 / RFU, GNAQ / Fold change vs veh, GNAQ / RFU, CDK5R1 / Fold change vs veh, CDK5R1 / RFU, ZRANB3 / Fold change vs veh, ZRANB3 / RFU, CUL4A / Fold change vs veh, CUL4A / RFU, CCNY / Fold change vs veh, CCNY / RFU, UFL1 / Fold change vs veh, UFL1 / RFU, COG3 / Fold change vs veh, COG3 / RFU, DIAPH2 / Fold change vs veh, DIAPH2 / RFU, SKA2 / Fold change vs veh, SKA2 / RFU, AFF3 / Fold change vs veh, AFF3 / RFU, LMF1 / Fold change vs veh, LMF1 / RFU, IPO11 / Fold change vs veh, IPO11 / RFU, DFFB / Fold change vs veh, DFFB / RFU, FOXP1 / Fold change vs veh, FOXP1 / RFU, CARD8 / Fold change vs veh, CARD8 / RFU, STRN3 / Fold change vs veh, STRN3 / RFU, ADK / Fold change vs veh, ADK / RFU, RASSF2 / Fold change vs veh, RASSF2 / RFU, WIPF1 / Fold change vs veh, WIPF1 / RFU, LARP1B / Fold change vs veh, LARP1B / RFU, RASA1 / Fold change vs veh, RASA1 / RFU, RB1 / Fold change vs veh, RB1 / RFU, PPFIA1 / Fold change vs veh, PPFIA1 / RFU, MAT2A / Fold change vs veh, MAT2A / RFU, CCT5 / Fold change vs veh, CCT5 / RFU, WDR92 / Fold change vs veh, WDR92 / RFU, CUX1 / Fold change vs veh, CUX1 / RFU, TTC7A / Fold change vs veh, TTC7A / RFU, TMEM135 / Fold change vs veh, TMEM135 / RFU, DEPTOR / Fold change vs veh, DEPTOR / RFU, CPM / Fold change vs veh, CPM / RFU, DNAJB6 / Fold change vs veh, DNAJB6 / RFU, CACNA2D3 / Fold change vs veh, CACNA2D3 / RFU, DTX4 / Fold change vs veh, DTX4 / RFU, TFCP2 / Fold change vs veh, TFCP2 / RFU, GMCL1 /// GMCL1P1 / Fold change vs veh, GMCL1 /// GMCL1P1 / RFU, AEBP2 / Fold change vs veh, AEBP2 / RFU, SNHG1 /// SNORD22 /// SNORD25 /// SNORD26 /// SNORD27 /// SNORD28 /// SNORD29 /// SNORD31 / Fold change vs veh, SNHG1 /// SNORD22 /// SNORD25 /// SNORD26 /// SNORD27 /// SNORD28 /// SNORD29 /// SNORD31 / Fold change (Aza/veh), C12orf56 (ProbeSet 11735607_a_at) / Fold change (ACY-1035/veh), C12orf56 (ProbeSet 11735607_a_at) / Fold change (Aza/veh), FGFR1OP (ProbeSet 11751329_s_at) / Fold change (ACY-1035/veh), FGFR1OP (ProbeSet 11751329_s_at) / Fold change (Aza/veh), VPS36 (ProbeSet 11739960_a_at) / Fold change (ACY-1035/veh), VPS36 (ProbeSet 11739960_a_at) / RFU SYPL1 (11715823_x_at) / Fold change /veh SYPL1 (11715823_x_at) / RFU IGFBP7 (11715501_s_at) / Fold change /veh IGFBP7 (11715501_s_at) / RFU REEP3 (11722064_at) / Fold change /veh REEP3 (11722064_at) / RFU IGLL1 (11728026_x_at) / Fold change /veh IGLL1 (11728026_x_at): dose or concentration left out as unconfirmed
Conditions: MV-4-11 cells, 48 hours

For `Nc1ncn([C@@H]2O[C@H](CO)[C@@H](O)[C@H]2O)c(=O)n1` [azacitidine], the “RFU CAMK2N1 (11719241_x_at)” value was 56.90 RFU.
